In patent publication US8158589B2, “Peptides with the capacity to bind to transforming growth factor β1 (TGF-β1)” (Proyecto Biomedicine Cima, S.L., priority 2003, dated 2012):
Ends that are not written are not given here.

Tests used:
TGF-β1 [1] = target: T1, TGF-β1 (Homo sapiens, UniProt P01137); test: Biopanning of phage-displayed 15-aa peptide library on biotinylated TGF-β1, number of colonies per sequence; format: binding; set-up: purchased Roche; host or cells: added to Mv-1-Lu (CCL-64) mink lung epithelial cells; settings: clones carrying the sequence among 108 colonies after the last biopanning cycle; approximate indication of affinity for TGF-β1
From the text: These libraries comprise a plurality of filamentous bacteriophages (M13), each one containing a peptide genetically fused to a protein of the virus envelope—in this case bound to the N-terminal end of envelope protein pIII (FIG. 1). […] In the phage libraries, the sequence encoding the peptide originates from a sequence degenerated in each one of the 15 positions with the 20 natural amino acids, thus allowing the presentation of 1.1×10^12 possible sequences of 15 amino acids in different phages. The physical ratio, 1:1, between the peptide sequence and the DNA encoding it within the bacteriophage allows the selection (from a broad range of variants) of those sequences that specifically bind to TGF-β1. This process is carried out via an in vitro selection protocol known as “biopanning”.
This technique involves incubating a set of phages representative (to practical effects) of all the 15-aa variants, in a plate blocked with streptavidin (10 μg/ml in 0.1 M NaHCO3, during 2 h at room temperature) to which biotinylated TGF-β1 is added. […] TGF-β1 contacts the peptides carried by the phages at a concentration of […]. After about 12 hours incubation, unbound phages are eliminated by 5 washings with PBS/Tween (phosphate buffered saline/polyoxyalkylene derivatives of sorbitan fatty acid esters). […] The eluted phages are then amplified by infection in a bacterial strain (E. coli). The process is repeated three cycles so that an enrichment in the content of phages which specifically bind, and with high affinity, to TGF-β1 is achieved (FIG. 3). […] Thus, the phages selected in each cycle show more and more affinity for TGF-β1. At the end of the process, phages which have been selected for their affinity for TGF-β1, are sequenced by using primers, after isolation by tetracycline resistance of the genetically modified phages after infecting E. coli cells. […] The number of times which a sequence is repeated, corresponding to a 15 amino acids peptide carried by each clone, from the total of sequenced colonies is an indication of the degree of relative affinity of said 15 amino acids sequence for TGF-β1.
The selection of clones, obtained from the “biopanning”, was carried out by selection of the bacterial colonies infected with the phages in the presence of a bacterial antibiotic; the bacteria resistance is acquired by a tetracycline resistance gene encoded by the phage genome. Thus, only those colonies infected with bacteriophages are able to grow. This means that each colony contains the genome of only one phage coding for only one peptide presented in its surface.
A total number of 108 colonies of phage-infected bacteria were obtained from the last selection cycle of “biopanning”. The sequence of the regions coding for the peptides present in the pIII protein was carried out using primers identified with SEQ ID NO: 23. This table also reflects the number of colonies (clones) carrying said sequences.
The number of clones (colonies) of each sequence gives an approximate indication of the degree of affinity of the peptide for TGF-β1, that is, the more colonies the more binding affinity.

TGF-β1 [2] = target: T2, TGF-β1 (Mus musculus, UniProt P04202); test: Model of acute liver damage induced by CCl4, type I collagen mRNA by real time PCR; format: in vivo, mice; set-up: key to % Inhibition of type I collagen mRNA induction (in vivo TGF-β1 biological activity): Neg: negative; settings: for % Inhibition of type I collagen mRNA induction (in vivo TGF-β1 biological activity): Balb/C mice, oral CCl4, 50 μg of peptide every 24 h, sacrifice after 72 hours; for inhibition of the biological activity of TGF-β1 in vivo (in words): acute liver damage, type I collagen mRNA
T2 construct: from tissue; host or cells: liver of Balb/C mice (CCl4 model); lung of C57BL/6 mice (bleomycin model)
Experimental: Acute liver damage generates a cascade of effects and physiological responses, including elevations in the concentrations of TGF-β1. This elevation is responsible for the expression of the type I collagen gene, among others. In this model of acute liver damage, female Balb/C mice weighing 25 to 30 g, were orally administered a dose of 2 μl of CCl4 (per gram of body weight) dissolved in an equivalent volume of corn oil (volumetric ratio of 1:1). The control group received an equivalent volume of corn oil only, and the treated groups received (following the single oral administration of CCl4 in corn oil) 50 μg of peptide in 500 μl of 1% physiological saline solution in DMSO (dimethyl sulfoxide) every 24 h. After 72 hours all animals were sacrificed, and the liver samples were processed. To evaluate mRNA expression, liver tissue was frozen in liquid nitrogen and stored at −80° C. until further use. Other liver tissue samples were stored in OCT® or Tissue-Tek® (Sakura Finetek B.V.) and processed in the same way as the samples used for mRNA studies. Other liver samples were fixed in 10% buffered formalin solution, embedded in paraffin and processed for their histological evaluation. The amount of mRNA encoding type I collagen was quantified in all groups using a quantitative polymerase chain reaction (PCR) technique. […] The capacity of the testing peptides to block the acute damage, as assessed by measuring the levels of induced type I collagen mRNA was quantified by real time PCR. […] The peptides tested were obtained by conventional solid peptide synthesis procedures (Merrifield R B. J Am Chem Soc 1963; 85:2149-2154; Atherton E et al. J Chem Soc Perkin Trans 1981; 1:538-546).

TGF-β1 [3] = target: T1, TGF-β1; format: cell-based; set-up: purchased Roche; host or cells: added to Mv-1-Lu (CCL-64) mink lung epithelial cells; settings: for inhibition of the biological activity of TGF-β1 in vitro (in words): Mv-1-Lu proliferation
From the text: The cell line Mv-1-Lu (CCL-64, […], Virginia, USA) derives from mink pulmonary epithelium, grows as a monolayer, and responds to the presence of TGF-β1 by decreasing its proliferation (FIG. 5). Thus, the peptide-mediated inhibition of this cytokine is able to restore cell growth and reflects the capacity of the different peptides to inhibit the biological activity of TGF-β1 in vitro. The peptides tested were obtained by peptide synthesis, in accordance to conventional procedures (Merrifield R B. J Am Chem Soc 1963; 85:2149-2154; Atherton E et al. J Chem Soc Perkin Trans 1981; 1:538-546).
The Mv-1-Lu cells are cultured to confluence in complete medium [RPMI-1640 supplemented with L-glutamine, sodium pyruvate, antibiotics and 10% fetal bovine serum (FBS)] at 37° C. and in 5% CO2 in 162 cm^2 bottles (Costar Corporation, CA, USA). Following trypsinization, the cells are cultured in 200 μl of complete medium in 96-well plates at an initial density of 5,000 cells/well at 37° C. and in 5% CO2 during 6 hours to ensure adhesion. Then, different concentrations of the peptides to be tested are added, starting from 200 μg/ml, and following 200 pg/ml of TGF-β1 (Roche) are added. After 12 hours of incubation 1 μCi of methyl-3H-thymidine (Amersham Life Science, Buckinghamshire, United Kingdom) is added per well in 25 μl of clean medium (RPMI-1640). The plate is incubated for 12 more hours under the same conditions. Finally, the cells are harvested (Filtermate 196 Harvester, Packard), transferring the tritiated thymidine, incorporated in the course of DNA synthesis, to plates (UniFilter-96 GF/C®, Perkin Elmer). Following the addition of scintillation fluid, the radioactivity was quantified using a scintillation counter (Top Count, Microplate Scintillation Counter, Packard). As positive and negative control, use was made of the incorporation of tritiated thymidine in the absence and presence of TGF-β1, respectively. The inhibition of TGF-β1 activity in this test was calculated based on the following formula: […]
The negative control represents the incorporation of tritiated thymidine in the presence of TGF-β1 but in the absence of peptide, whereas the positive control refers to the incorporation of tritiated thymidine in the absence of TGF-β1 and peptide. Thus, according to the capacity of the peptides to revert the cytokine repressor effect on Mv-1-Lu cell line proliferation, percentage of TGF-β1 biological activity inhibition by the peptides can be measured (Table 2).
Comparisons have been made of the activity of truncated peptides (derived from peptide sequence SEQ ID NO: 17) versus the complete sequence, in terms of the capacity to revert the suppressor effect of TGF-β1 upon proliferation of the Mv-1-Lu cell line. To this effect, and to determine the minimum sequence of peptide SEQ ID NO: 17 capable of inhibiting the biological activity of TGF-β1 in vitro, truncated versions of this peptide were synthesized, with truncation at the N-terminal end, C-terminal end or in both ends of the molecule. The peptides tested were obtained by peptide synthesis following conventional procedures (Merrifield R B. J Am Chem Soc 1963; 85:2149-2154; Atherton E et al. J Chem Soc Perkin Trans 1981; 1:538-546). Following the same methodology described in Example 2, the activity of truncated peptides versus the complete sequence of the peptide SEQ ID NO: 17 was quantified, in terms of a proliferation assay of the Mv-1-Lu cell line.

T2 sequence (P04202 279-390 limits assumed): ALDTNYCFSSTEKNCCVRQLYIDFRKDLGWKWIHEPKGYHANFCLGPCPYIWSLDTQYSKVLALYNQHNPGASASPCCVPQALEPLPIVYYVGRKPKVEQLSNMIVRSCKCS
T1 sequence (P01137 279-390 limits assumed, species assumed): as the sequence (P04202 279-390 limits assumed) above, with S75A counted along it

Row | No. colonies (TGF-β1 [1]) | % Inhibition of in vitro TGF-β1 biological activity (TGF-β1 [3]) [%] | inhibition of the biological activity of TGF-β1 in vitro (in words) (TGF-β1 [3]) | Sequence | % Inhibition of type I collagen mRNA induction (in vivo TGF-β1 biological activity) (TGF-β1 [2]) | inhibition of the biological activity of TGF-β1 in vivo (in words) (TGF-β1 [2])
1 | 6 | – | – | DRRIFWWSLRSAPGA [SEQ ID NO: 1] | 0.69% | –
2 | 1 | – | – | DRRIFWWSNRSAPGA [SEQ ID NO: 2] | 36.6 ± 30.7% | only inhibitory activity
3 | – | −0.3 ± 3.0 | – | FIPRSSWYERA [SEQ ID NO: 30, FIPRSSWYERA] | – | –
4 | 1 | – | – | FVWVRFHRLPRQIYT [SEQ ID NO: 10] | Neg | –
5 | 1 | – | – | GWHSLLHSRYHRLAA [SEQ ID NO: 9] | 26.59% | –
6 | 1 | – | – | GWITFHRRHHDRVLS [SEQ ID NO: 15] | 14.26% | –
7 | 2 | – | – | HRISHFAHRYLARLH [SEQ ID NO: 7] | Neg | –
8 | 1 | – | – | HVRLHHYLRHRSLPN [SEQ ID NO: 21] | Neg | –
9 | – | 3.4 ± 1.4 | – | IPRSSWYERA [SEQ ID NO: 31, IPRSSWYERA] | – | –
10 | – | 1.4 ± 2.5 | – | IWFIPRSSWYE [SEQ ID NO: 27, IWFIPRSSWYE] | – | –
11 | – | 4.5 ± 1.8 | – | IWFIPRSSWYERA [SEQ ID NO: 26, IWFIPRSSWYERA] | – | –
12 | – | 6.2 ± 2.5 | – | KRIWFIPRS [SEQ ID NO: 36, KRIWFIPRS] | – | –
13 | – | 6.0 ± 0.4 | – | KRIWFIPRSS [SEQ ID NO: 35, KRIWFIPRSS] | – | –
14 | – | 34.4 ± 7.9 | – | KRIWFIPRSSWY [SEQ ID NO: 34, KRIWFIPRSSWY] | – | capable of inhibiting the expression of collagen type I mRNA
15 | – | 31.4 ± 7.0 | inhibitory activity | KRIWFIPRSSWYER [SEQ ID NO: 33, KRIWFIPRSSWYER] | – | –
16 | 1 | – | only inhibitory activity | MPLSRYWWLFSHRPR [SEQ ID NO: 18] | Neg | –
17 | 12 | – | inhibitory capacity | PPYHRFWRGHRHAVQ [SEQ ID NO: 6] | 74.94 ± 25.3% | inhibitory capacity
18 | – | 3.8 ± 1.6 | – | PRSSWYERA [SEQ ID NO: 32, PRSSWYERA] | – | –
19 | 1 | – | – | RHLSHFKWLRSHGLD [SEQ ID NO: 19] | 12.12% | –
20 | – | 6.2 ± 1.5 | – | RIWFIPRSSWYER [SEQ ID NO: 25, RIWFIPRSSWYER] | – | –
21 | – | 9.4 ± 0.4 | – | RIWFIPRSSWYERA [SEQ ID NO: 24, RIWFIPRSSWYERA] | – | –
22 | 1 | – | – | RLHGHRSHRFTHVAQ [SEQ ID NO: 16] | Neg | –
23 | 1 | – | – | RRFHFHSRMVAVDNS [SEQ ID NO: 20] | 1.41% | –
24 | 1 | – | – | RRWVRYPVHLHSPIV [SEQ ID NO: 5] | Neg | –
25 | 1 | – | – | VPMALNHGVYVMVSS [SEQ ID NO: 22] | Neg | –
26 | – | 3.1 ± 0.9 | – | WFIPRSSWY [SEQ ID NO: 28, WFIPRSSWY] | – | –
27 | – | 2.7 ± 1.8 | – | WFIPRSSWYERA [SEQ ID NO: 29, WFIPRSSWYERA] | – | –
28 | 1 | – | – | WHKYFLRRPLSVGLG [SEQ ID NO: 12] | Neg | –
29 | 2 | – | – | WHWRHRIPLQLAAGR [SEQ ID NO: 8] | Neg | –
